From publication PMC3656107, “Polymorphisms in the F8 Gene and MHC-II Variants as Risk Factors for the Development of Inhibitory Anti-Factor VIII Antibodies during the Treatment of Hemophilia A: A Computational Assessment” (PLoS Computational Biology, 2013)

How the values were obtained:
[1] = biological target: T1, MHC-II DRB1*04:01 (Homo sapiens, UniProt P01903+P01911, A100K/A169T/F76Y/I96L/K127E/L162R/M171V/N62H/P40V/Q125Y/R42H/S133A/S149N/S66Y/V115G/V209L/W38E); test: Cell-free REVEAL class II stability assay; conditions: half-life of peptide-MHC-II complex (h, capped at 120) x Binding Score / 100, conformational ELISA
Outline: (§1)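 Complexes assemble over 96 hr at 10°C; samples are snap-frozen, then probed by anti-HLA conformational ELISA. Dissociation is sampled the same way. Fitted k yields t1/2, normalized via Binding Score.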

[2] = biological target: T2, MHC-II DRB1*15:01 (Homo sapiens, UniProt P01903+P01911); test: Cell-free REVEAL class II stability assay; conditions: half-life of peptide-MHC-II complex (h, capped at 120) x Binding Score / 100, conformational ELISA
T2 construct: purchased ProImmune
Outline: as §1

[3] = biological target: T3, MHC-II DRB1*07:01 (Homo sapiens, UniProt P01903+P01911, A100R/A102G/A103Q/D57E/D86V/E43K/F76Y/K127E/L162R/M171V/P40G/Q125H/Q99D/R33Q/R42Y/R54Q/S133A/S66F/T210M/V115G/Y107V/Y59L/Y89S); test: Cell-free REVEAL class II stability assay; conditions: half-life of peptide-MHC-II complex (h, capped at 120) x Binding Score / 100, conformational ELISA
Outline: as §1

[4] = biological target: T4, MHC-II DRB1*11:01 (Homo sapiens, UniProt P01903+P01911, A100R/A169T/A87E/I96F/K41T/L162R/M171V/P40S/Q125H/Q178H/Q39Y/Q99D/R42S/S66Y/T262R/V115G/W38E); test: Cell-free REVEAL class II stability assay; conditions: half-life of peptide-MHC-II complex (h, capped at 120) x Binding Score / 100, conformational ELISA
Outline: as §1

[5] = biological target: T5, MHC-II DRB1*15:03 (Homo sapiens, UniProt P01903+P01911, Y59H); test: Cell-free REVEAL class II stability assay; conditions: half-life of peptide-MHC-II complex (h, capped at 120) x Binding Score / 100, conformational ELISA
T5 construct: purchased ProImmune
Outline: as §1

[6] = biological target: T6, MHC-II DRB1*03:01 (Homo sapiens, UniProt P01903+P01911, A100K/A102G/A103R/A169T/F55Y/I96L/K41T/L162R/M171V/P40S/Q125H/Q178H/Q39Y/R42S/S66N/T106N/T262R/W38E/Y61H); test: Cell-free REVEAL class II stability assay; conditions: half-life of peptide-MHC-II complex (h, capped at 120) x Binding Score / 100, conformational ELISA
Outline: as §1

[7] = biological target: T1, MHC-II DRB1*04:01; test: Cell-free REVEAL class II binding assay; conditions: signal of test peptide as percentage of allele-specific positive control peptide, fluorescence, conformation-specific monoclonal antibody
Outline: (§2)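 Binding of each test peptide to the MHC-II allele was detected by the native conformation of the peptide–MHC complex, read as a fluorescence rise from a conformation-specific monoclonal antibody. Values are percent of signal from an allele-specific positive control T-cell epitope; an intermediate-affinity binder served as assay control.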

[8] = biological target: T2, MHC-II DRB1*15:01; test: Cell-free REVEAL class II binding assay; conditions: signal of test peptide as percentage of allele-specific positive control peptide, fluorescence, conformation-specific monoclonal antibody
Outline: as §2

[9] = biological target: T3, MHC-II DRB1*07:01; test: Cell-free REVEAL class II binding assay; conditions: signal of test peptide as percentage of allele-specific positive control peptide, fluorescence, conformation-specific monoclonal antibody
Outline: as §2

[10] = biological target: T4, MHC-II DRB1*11:01; test: Cell-free REVEAL class II binding assay; conditions: signal of test peptide as percentage of allele-specific positive control peptide, fluorescence, conformation-specific monoclonal antibody
Outline: as §2

[11] = biological target: T5, MHC-II DRB1*15:03; test: Cell-free REVEAL class II binding assay; conditions: signal of test peptide as percentage of allele-specific positive control peptide, fluorescence, conformation-specific monoclonal antibody
Outline: as §2

[12] = biological target: T6, MHC-II DRB1*03:01; test: Cell-free REVEAL class II binding assay; conditions: signal of test peptide as percentage of allele-specific positive control peptide, fluorescence, conformation-specific monoclonal antibody
Outline: as §2

T4 sequence (P01903 26-254 limits assumed, other chains not shown): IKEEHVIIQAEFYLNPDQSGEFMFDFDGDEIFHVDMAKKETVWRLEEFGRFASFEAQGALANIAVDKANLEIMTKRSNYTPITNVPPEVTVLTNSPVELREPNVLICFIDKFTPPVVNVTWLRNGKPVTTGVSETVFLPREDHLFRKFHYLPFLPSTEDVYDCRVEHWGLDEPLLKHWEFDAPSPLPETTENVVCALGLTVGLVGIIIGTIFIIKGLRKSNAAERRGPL
T6 sequence (P01903 26-254 limits assumed, other chains not shown): as above
T5 sequence (P01903 26-254, other chains not shown): as the sequence (P01903 26-254 limits assumed, other chains not shown) above

Row | Sequence | Stability Index [1] | Stability Index [2] | Stability Index [3] | Stability Index [4] | Stability Index [5] | Stability Index [6] | Binding Score [7] | Binding Score [8] | Binding Score [9] | Binding Score [10] | Binding Score [11] | Binding Score [12]
1 | TKSDPRCLTRYYSSF [synthetic wild type FVIII 15 mer peptide] | 0.1 | 45.5 | 0.0 | 0.8 | 1.6 | 2.4 | 0.8% | 37.9% | 0.0% | 23.1% | 26.8% | 12.6%
2 | TLTLFPFSGETVFMS [synthetic wild type FVIII 15 mer peptide] | 0.6 | 2.3 | 0.0 | 0.0 | 0.0 | 0.0 | 7.3% | 41.4% | 0.0% | 0.1% | 0.4% | 0.0%
3 | TRYLRIHPQSWVHQI [synthetic wild type FVIII 15 mer peptide] | 0.9 | 983.1 | 40.8 | 5.3 | 30.5 | 0.0 | 8.2% | 819.2% | 34.0% | 49.4% | 25.4% | 0.0%
4 | YNIYPHGITDVRPLY [synthetic wild type FVIII 15 mer peptide, region of ns-SNP R484H] | 0.2 | 2.0 | 0.1 | 1.1 | 0.1 | 0.0 | 2.1% | 40.8% | 0.1% | 35.8% | 0.1% | 0.2%
5 | YPHGITDVRPLYSRR [synthetic wild type FVIII 15 mer peptide, region of ns-SNP R484H] | 0.0 | 0.5 | 0.1 | 1.2 | 0.1 | 5.2 | 0.1% | 0.4% | 0.1% | 46.7% | 0.1% | 4.8%

Further lines, results first:

Row | Stability Index [1] | Stability Index [2] | Stability Index [3] | Stability Index [4] | Stability Index [5] | Stability Index [6] | Binding Score [7] | Binding Score [8] | Binding Score [9] | Binding Score [10] | Binding Score [11] | Binding Score [12] | Sequence
6 | 0.0 | 0.0 | 0.0 | 0.0 | 0.0 | 0.0 | 0.2% | 0.0% | 0.0% | 0.0% | 0.0% | 0.2% | TVEDGPTKSDPRCLT [synthetic wild type FVIII 15 mer peptide]
7 | 0.1 | 7.8 | 0.0 | 0.0 | 0.1 | 0.4 | 1.2% | 95.8% | 0.0% | 0.2% | 2.2% | 2.7% | VVNSLDPPLLTRYLR [synthetic wild type FVIII 15 mer peptide]
8 | 61.0 | 1434.9 | 20.6 | 30.2 | 281.7 | 2.4 | 59.3% | 1195.7% | 17.2% | 174.3% | 234.7% | 7.9% | YIRLHPTHYSIRSTL [synthetic wild type FVIII 15 mer peptide]
9 | 30.9 | 723.1 | 0.0 | 33.1 | 1.7 | 0.2 | 44.5% | 602.6% | 0.0% | 114.1% | 1.4% | 1.8% | YISQFIIMYSLDGKK [synthetic wild type FVIII 15 mer peptide]
10 | 0.1 | 3.0 | 0.0 | 1.1 | 0.0 | 0.0 | 0.9% | 11.8% | 0.0% | 23.5% | 0.2% | 0.0% | YSLDGKKWQTYRGNS [synthetic wild type FVIII 15 mer peptide]
11 | 0.5 | 1.1 | 0.0 | 13.7 | 0.1 | 0.0 | 5.0% | 0.9% | 0.0% | 31.6% | 0.0% | 0.8% | YTFKHKMVYEDTLTL [synthetic wild type FVIII 15 mer peptide]
